This is an account of results in patent publication US6943190B2, “Method of using pyruvate and/or its derivatives for the treatment of cytokine-mediated inflammatory conditions” (University of Pittsburgh-of the Commonwealth System of …, priority 2001, dated 2005).

Structures are written as SMILES.

The nature of data set [1]: Stability of pyruvate esters in aqueous solution. Format: physicochemical. As to conditions: in the presence of calcium salts; compared with sodium pyruvate.
Data set [2] relates to lethal endotoxemia (E. coli lipopolysaccharide). The data set is described as follows: Lethal endotoxemia (LPS) in mice: survival and morbidity. The conditions noted are these: for survival: P<0.005. Format: in vivo, Balb/C mice. How it is done:
Animal Experiments. Male 6-8 week old Balb/C mice (20-25 g) were purchased from Harlen Sprague-Dawley (Indianapolis, Ind.) and allowed to acclimate for 7 days housed at 25° C. on a 12 h light/dark cycle. Animals were randomly grouped (10 mice per group) and assigned to a specific experiment. All animal experiments were performed in accordance with the National Institutes of Health Guidelines under protocols approved by the Institutional Animal Care and Use Committee of North Shore University Hospital and New York University Medical School.
(§1) Endotoxin shock. Mice were injected with endotoxin (Escherichia coli lipopolysaccharide, LPS 0111:B4; Sigma Chemical Co, St. Louis, Mo.) that was dissolved in sterile pyrogen-free saline at stock concentrations of 10 mg/ml. LPS solutions were sonicated for 20 min immediately prior to use for each experiment. Mice received an LD75 dose of LPS (5 mg/kg, i.p.). Blood was collected at different times after LPS administration, allowed to clot for 2 h at room temperature, then centrifuged for 20 min at 1,500 g. Serum samples were stored at […] prior to analysis. Mortality was recorded for up to 3 weeks after injection to ensure that no additional late deaths occurred.
Ethyl Pyruvate Solution: Ethyl pyruvate was prepared in solution with sodium (130 mM), potassium (4 mM), calcium (2.7 mM), chloride (130 mM), and ethyl pyruvate (28 mM); pH 7.0). For injections in mice solutions were diluted so that each injection volume was 0.4 ml per dose.
The initial evaluation of ethyl pyruvate (EP) was conducted as a therapeutic solution in lethal systemic inflammation in a standard model of murine endotoxemia. Balb/c mice received a single dose of ethyl pyruvate (40 mg ethyl pyruvate/kg mouse) 30 minutes before the onset of lethal endotoxemia (E. coli lipopolysaccharide, LPS, 5 mg LPS/kg, i.p.). Ethyl pyruvate pretreatment protected BALB/c mice from lethal endotoxemia (ethyl pyruvate survival=20/20 versus vehicle control survival=3/20; P<0.005) (FIG. 3A).
The therapeutic efficacy of the delayed administration of ethyl pyruvate after the onset of endotoxemia was assessed. Ethyl pyruvate dosing in endotoxemic mice was initiated 4 hours after the onset of endotoxemia, when clinical signs were already evident, including diarrhea, piloerection, and depressed spontaneous activity (FIG. 4A).

The subject of another data set is IL-1. The data set is described as follows: Peak serum IL-1 in endotoxemic mice (ELISA). The data set is classed as in vivo, Balb/C mice. The conditions noted are these: pretreatment, data not shown. Here is the method:
as §1
(§2) Cytokine measurements. TNF concentration in mouse serum and in conditioned media from RAW 264.7 cell cultures was measured by ELISA (minimum detectable concentration=10 pg/ml). […] Mouse serum IL-6 and IL-1β levels were measured using ELISA kits (R&D Systems, Inc., Minneapolis, Minn.). HMGB-1 was analyzed by western blot as previously described by Wang et al, 1999. […] Protein was electroblotting to Immun-blot PVDF membrane (Bio-rad, Hercules Calif.) and HMGB-1 was analyzed using polyclonal 241 antibody and secondary anti-rabbit horseradish peroxidase (Amersham, Pitscataway, N.J.). Standard curves were constructed using r-HMGB-1, and the intensity of the 30 kD band analyzed by densitometry. […]

A further data set relates to TNF. The data set can be described thus: TNF release by LPS-stimulated RAW 264.7 macrophage cultures (ELISA). Format: cell-based, murine. Here is the method: (§3) Cell Culture. BALB/c murine macrophage-like RAW 264.7 cells obtained from the American Type Culture Collection (ATCC Number TIB-71, ATCC, Rockville, Mass.) (61), were cultured in RPMI 1640 (Life Technologies, Grand Island, N.Y.) supplemented with 10% heat inactivated fetal bovine serum (Gemini, Calabasas, Calif.), 2 mM glutamine (Cat. # 25030-149, Gibco BRL, Rockville, Mass.) and antibiotic-antimycotic mix (Cat. # 15240-062, Gibco BRL, Rockville, Mass.) in a humidified incubator with 5% CO2. Cells were mechanically removed and resuspended in serum-free Opti-MEM I medium (Life Technology, Grand Island, N.Y.) to perform experiments at 75% confluence.
as §2
(In general: An ELISA detects its analyte on a solid surface through an enzyme-linked reagent.)

The subject of a further data set is HMGB-1. The data set can be described thus: HMGB-1 release from LPS-stimulated RAW264.7 macrophage cultures (western blot). The data set is classed as cell-based, murine. Here is the method:
as §3, §2
A general note: A western blot detects proteins with antibodies after separation by electrophoresis.

The test system of the next data set is IL6. The data set can be described thus: Peak serum IL6 in endotoxemic mice (ELISA). As to conditions: pretreatment, data not shown. Format: in vivo, Balb/C mice. How it is done:
as §1, §2

As for `CCOC(=O)C(C)=O` [ethyl pyruvate], the “stability of aqueous solution” value in data set [1] was “more stable aqueous solution than sodium pyruvate”. Further, the “clinical signs of morbidity” value in data set [2] (delayed treatment beginning 4 hours after LPS) was “reversed clinical signs of morbidity”. Besides, the survival in data set [2] (delayed treatment: 40 mg/kg i.p. at 4, 8, 12, 24 and 30 hours after LPS, vehicle 5/20) is 17/20; in data set [2] (pretreatment: single dose 40 mg/kg i.p. 30 minutes before LPS 5 mg/kg i.p., vehicle 3/20) it was 20/20; in data set [2] (pretreatment: single dose 40 mg/kg i.p. 30 minutes before LPS 5 mg/kg i.p., vehicle 3/20, listed as EP), “conferred significant protection against lethality”. In addition, the “clinical manifestations of endotoxin morbidity” value in data set [2] (pretreatment 40 mg/kg 30 minutes before LPS 5 mg/kg i.p.) is listed as “significantly prevented the clinical manifestations of endotoxin morbidity”. Moreover, the “peak serum level of IL-1” value with IL-1 is given as “attenuated”. Also, in the data set on TNF (LPS-stimulated RAW 264.7 cells, highest doses of ethyl pyruvate), the “synthesis of TNF at the highest doses tested” value is recorded as “not completely inhibited”. The EC50 in the data set with TNF (Mus musculus, RAW264.7, RAW 264.7 cells stimulated with 50 or 100 ng/ml LPS, conditioned media, read-out: concentration that suppressed 50% of the TNF response (EC50)) was 3.4 mM. Moreover, the “total intracellular (cell associated) HMGB1 protein concentration” value with HMGB-1 (RAW264.7 cells treated with 1, 5 or 10 mM, 10 or 20 h) is on record as “did not significantly influence total intracellular HMGB1 protein concentration”. Further, the “LPS-induced HMGB-1 release” value with HMGB-1 (conditioned media, overnight (24 hrs) endotoxin exposure) is “significantly prevented LPS-induced HMGB-1 release in a concentration dependent manner”. The “peak serum level of IL6” value with IL6 is “attenuated”.
